Legend:
human PAR-1 = molecular target: T1, human PAR-1 (Homo sapiens, UniProt P25116); assay: Evaluation of PAR-1 antagonistic action by intracellular calcium concentration variation assay (FLIPR); assay type: cell-based; conditions: human PAR-1-expressing CHO cells, agonist peptide SFLLRN-NH2 final concentration 0.3 nM, Fluo-3AM
T1 construct: expressed in transfected cells; host or cells: CHO-K1 (transformant flag/trn/CHO-K1)
T1 sequence (P25116 22-425): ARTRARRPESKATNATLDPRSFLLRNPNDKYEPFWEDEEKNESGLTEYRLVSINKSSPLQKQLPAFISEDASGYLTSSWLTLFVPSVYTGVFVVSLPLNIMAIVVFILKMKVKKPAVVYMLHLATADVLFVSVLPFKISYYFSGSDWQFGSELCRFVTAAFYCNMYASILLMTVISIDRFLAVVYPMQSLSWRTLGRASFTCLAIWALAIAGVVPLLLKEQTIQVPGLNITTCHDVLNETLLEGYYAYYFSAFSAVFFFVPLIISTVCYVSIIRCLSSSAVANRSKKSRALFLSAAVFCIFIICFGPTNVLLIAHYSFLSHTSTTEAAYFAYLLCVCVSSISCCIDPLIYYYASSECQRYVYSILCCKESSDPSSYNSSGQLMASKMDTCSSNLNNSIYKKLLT
Protocol: Evaluation of PAR-1 Antagonistic Action of Compound by Intracellular Calcium Concentration Variation Assay
Human PAR-1-expressing cells was plated at 3×10^4 cells/well on a 96 well clear bottom plate (Corning 3904 type) and cultured for 16-24 hr. The medium was removed from the wells of the plate, measurement buffer (50 μL, 115 mM NaCl, 5.4 mM KCl, 1.8 mM CaCl2, 0.8 mM MgCl2, 13.8 mM D-glucose, 0.1% BSA, 20 mM HEPES, pH 7.4) containing 2.5 μg/mL of Fluo-3AM (manufactured by Dojindo Laboratories), 0.08% Pluronic F-127 and 2.5 mM Probenecid was added to the cells and the mixture was reacted at 37° C. for 1 hr. The cells were washed twice with the measurement buffer. After addition of the measurement buffer (100 μL), a measurement buffer (50 μL) containing a test compound was added, and the mixture was stood still for 10 min. The plate was moved to a fluorometry image-plate reader (FLIPR-1, manufactured by Molecular Devices). […] The intracellular calcium concentration was measured by FLIPR.

Row | Structure (SMILES) | melting point | IC50 (human PAR-1) [nM]
1 | CCNC(=O)c1ccc(-n2nnc(C(=O)NC3CC3)c2CCO)cc1 [Example 114, N-cyclopropyl-1-{4-[(ethylamino)carbonyl]phenyl}-5-(2-hydroxyethyl)-1H-1,2,3-triazole-4-carboxamide] | 156 °C | 
2 | CCNC(=O)c1ccc(-n2nnc(C(=O)NC3CC3)c2COCc2ccccc2)c(OCc2ccccc2)c1 [Example 316, 1-{2-(benzyloxy)-4-[(ethylamino)carbonyl]phenyl}-5-[(benzyloxy)methyl]-N-cyclopropyl-1H-1,2,3-triazole-4-carboxamide] | 132 °C | 
3 | CCNC(=O)c1ccc(-n2nnc(C(=O)NC3CC3)c2CO)c(O)c1 [Example 317, N-cyclopropyl-1-{4-[(ethylamino)carbonyl]-2-hydroxyphenyl}-5-(hydroxymethyl)-1H-1,2,3-triazole-4-carboxamide] | 185 °C | 
4 | CCNC(=O)c1ccc(-n2nnc(C(=O)NC3CC3)c2CNCc2ccccc2)cc1 [Example 126, 5-[(benzylamino)methyl]-N-cyclopropyl-1-{4-[(ethylamino)carbonyl]phenyl}-1H-1,2,3-triazole-4-carboxamide] | 153 °C | 
5 | C=Cc1c(C(=O)NC2CC2)nnn1-c1ccc(C(=O)NCC)cc1 [Example 115, N-cyclopropyl-1-{4-[(ethylamino)carbonyl]phenyl}-5-vinyl-1H-1,2,3-triazole-4-carboxamide] | 162 °C | 
6 | CCNC(=O)c1ccc(-n2nnc(C(=O)NC3CC3)c2CN2CCOCC2)cc1 [Example 128, N-cyclopropyl-1-{4-[(ethylamino)carbonyl]phenyl}-5-(morpholin-4-ylmethyl)-1H-1,2,3-triazole-4-carboxamide] | 234 °C (dec.) | 
7 | CCNC(=O)c1ccc(-n2nnc(C(=O)NC3CC3)c2CCCCCF)cc1 [Example 111, N-cyclopropyl-1-{4-[(ethylamino)carbonyl]phenyl}-5-(5-fluoropentyl)-1H-1,2,3-triazole-4-carboxamide] | 150.3 °C | 1600
8 | CCNC(=O)c1ccc(-n2nnc(C(=O)NC3CC3)c2CN2CCCC2)cc1 [Example 127, N-cyclopropyl-1-{4-[(ethylamino)carbonyl]phenyl}-5-(pyrrolidin-1-ylmethyl)-1H-1,2,3-triazole-4-carboxamide] | 164 °C | 
9 | CCCc1c(C(=O)NC2CC2)nnn1-c1ccc(C(=O)NCC)cc1O [Example 315, N-cyclopropyl-1-{4-[(ethylamino)carbonyl]-2-hydroxyphenyl}-5-propyl-1H-1,2,3-triazole-4-carboxamide] | 203 °C | 
10 | CCCc1c(C(=O)NCc2cccc(F)c2)nnn1-c1ccc(C(=O)NCC)cc1 [Example 88, 1-{4-[(ethylamino)carbonyl]phenyl}-N-(3-fluorobenzyl)-5-propyl-1H-1,2,3-triazole-4-carboxamide] |  | 720
11 | CCNC(=O)c1ccc(-n2nnc(C(=O)NC3CC3)c2CC2CC2)cc1 [Example 96, N-cyclopropyl-5-(cyclopropylmethyl)-1-{4-[(ethylamino)carbonyl]phenyl}-1H-1,2,3-triazole-4-carboxamide] |  | 1200
12 | CCCNC(=O)c1ccc(-n2nnc(C(=O)NC3CC3)c2CCC)cc1 [Example 55, N-cyclopropyl-5-propyl-1-{4-[(propylamino)carbonyl]phenyl}-1H-1,2,3-triazole-4-carboxamide] |  | 3600
13 | CCNC(=O)c1ccc(-n2nnc(C(=O)NC3CC3)c2Cc2ccccc2)cc1 [Example 99, 5-benzyl-N-cyclopropyl-1-{4-[(ethylamino)carbonyl]phenyl}-1H-1,2,3-triazole-4-carboxamide] |  | 1300
14 | CCCc1c(C(=O)NC2CC2)nnn1-c1ccc(NC(=O)NCC)cc1 [Example 27, N-cyclopropyl-1-(4-{[(ethylamino)carbonyl]amino}phenyl)-5-propyl-1H-1,2,3-triazole-4-carboxamide] |  | 370
15 | CCNC(=O)c1ccc(-n2nnc(C(=O)NC3CC3)c2COc2cccc(F)c2)cc1 [Example 414, N-cyclopropyl-1-{4-[(ethylamino)carbonyl]phenyl}-5-[(3-fluorophenoxy)methyl]-1H-1,2,3-triazole-4-carboxamide] |  | 190
16 | CCNC(=O)c1ccc(-n2nnc(C(=O)NC3CC3)c2CC(C)C)cc1 [Example 93, N-cyclopropyl-1-{4-[(ethylamino)carbonyl]phenyl}-5-isobutyl-1H-1,2,3-triazole-4-carboxamide] |  | 1200
17 | CCNC(=O)c1ccc(-n2nnc(C(=O)NC3CC3)c2CSc2ccccc2)cc1 [Example 130, N-cyclopropyl-1-{4-[(ethylamino)carbonyl]phenyl}-5-[(phenylthio)methyl]-1H-1,2,3-triazole-4-carboxamide] |  | 480
18 | CCNC(=O)c1ccc(-n2cc(C(=O)NC3CC3)nn2)c(OCCCc2ccccc2)c1 [Example 133, N-cyclopropyl-1-{4-[(ethylamino)carbonyl]-2-(3-phenylpropoxy)phenyl}-1H-1,2,3-triazole-4-carboxamide] |  | 270
19 | CCCc1c(C(=O)NC2CC2)nnn1-c1ccc(C(=O)NCC)cc1 [Example 43, N-cyclopropyl-1-{4-[(ethylamino)carbonyl]phenyl}-5-propyl-1H-1,2,3-triazole-4-carboxamide] |  | 1500
20 | CCNC(=O)c1ccc(-n2nnc(C(=O)NC3CC3)c2CCCc2ccccc2)cc1 [Example 100, N-cyclopropyl-1-{4-[(ethylamino)carbonyl]phenyl}-5-(3-phenylpropyl)-1H-1,2,3-triazole-4-carboxamide] |  | 700
21 | CCNC(=O)c1ccc(-n2nnc(C(=O)NC3CC3)c2CCCCCc2ccccc2)cc1 [Example 101, N-cyclopropyl-1-{4-[(ethylamino)carbonyl]phenyl}-5-(5-phenylpentyl)-1H-1,2,3-triazole-4-carboxamide] |  | 820
22 | C/C=C/c1c(C(=O)NC2CC2)nnn1-c1ccc(C(=O)NCC(F)(F)F)cc1 [Example 399, N-cyclopropyl-5-[(1E)-prop-1-en-1-yl]-1-(4-{[(2,2,2-trifluoroethyl)amino]carbonyl}phenyl)-1H-1,2,3-triazole-4-carboxamide] |  | 1400
23 | CCNC(=O)c1ccc(-n2nnc(C(=O)NC3CC3)c2CSC)cc1 [Example 129, N-cyclopropyl-1-{4-[(ethylamino)carbonyl]phenyl}-5-[(methylthio)methyl]-1H-1,2,3-triazole-4-carboxamide] | 192 °C | 740
24 | CCCc1c(C(=O)NCc2cnc(C)cn2)nnn1-c1ccc(C(=O)NCC)cc1 [Example 83, 1-{4-[(ethylamino)carbonyl]phenyl}-N-[(5-methylpyrazin-2-yl)methyl]-5-propyl-1H-1,2,3-triazole-4-carboxamide] |  | 3600
25 | CCNC(=O)c1ccc(-n2nnc(C(=O)NC3CC3)c2/C=C/c2ccccc2)cc1 [Example 106, N-cyclopropyl-1-{4-[(ethylamino)carbonyl]phenyl}-5-[(E)-2-phenylvinyl]-1H-1,2,3-triazole-4-carboxamide] |  | 400
26 | C=CCCc1c(C(=O)NC2CC2)nnn1-c1ccc(NC(=O)NCC)cc1 [Example 41, 5-(3-buten-1-yl)-N-cyclopropyl-1-(4-{[(ethylamino)carbonyl]amino}phenyl)-1H-1,2,3-triazole-4-carboxamide] |  | 630
27 | CCNC(=O)c1ccc(-n2nnc(C(=O)NC3CC3)c2CCCO)cc1 [Example 113, N-cyclopropyl-1-{4-[(ethylamino)carbonyl]phenyl}-5-(3-hydroxypropyl)-1H-1,2,3-triazole-4-carboxamide] |  | 3100
28 | CCCc1c(C(=O)NCc2ccccn2)nnn1-c1ccc(C(=O)NCC)cc1 [Example 84, 1-{4-[(ethylamino)carbonyl]phenyl}-5-propyl-N-(pyridin-2-ylmethyl)-1H-1,2,3-triazole-4-carboxamide] |  | 1300
